From US7022736B2, “Enzyme inhibitors” (Istituto Di Ricerche Di Biologia Molecolare P Angeletti SpA, priority 1998, dated 2006)
pIC50: −log10 of the molar value. Read-outs that look alike come from different tables or passages of the source.

How the values were obtained:
[1] = biological target: T1, reverse transcriptase of HIV (HIV-1 RT) (Human immunodeficiency virus type 1 group M subtype B, UniProt P03366); assay: Inhibition of HIV-1 reverse transcriptase ([3H]dTTP incorporation); format: biochemical, Human Immunodeficiency Virus-1; conditions: Tables IXa-IXc; unit inferred; NA=not active as an inhibitor
T1 construct: the reverse transcriptase of HIV (HIV -1RT) from Boehringer Mannhium; purchased Boehringer Mannheim (printed 'Boehringer Mannhium')
Description: Test for Inhibition of Human Immunodeficiency Virus-1 Reverse Transcriptase
Analogous assays employed the reverse transcriptase of HIV (HIV -1RT) from Boehringer Mannhium.
Incorporation of radioactive dTTP was measured as follows. The standard reaction (100 μl) was carried out in a buffer containing 50 mM tris/HCl pH 8.2, 2.5 mM MgCl 2, 1 mM DTT, 80 mM KCl, 5 mM EGTA, 0.05% Triton X-100, 1 μCi[3H] dTTP (40 Ci/mmol, NEN), 10 μM […] and 10 μg/ml poly(A)/dT (from Pharmacia).

[2] = biological target: T2, HCV RdRp (NS5B RNA-dependent RNA polymerase) (Hepatitis C virus genotype 1b, UniProt P26663); assay: Inhibition of hepatitis C virus RdRp (poly(A)/oligo(U), [3H]UTP incorporation); format: biochemical; conditions: for IC50: Tables I-VIII, 20 nM NS5B, 1 hour at 22° C., read-out: IC 50 (μM), HCV-polymerase
T2 construct: The HCV NS5B protein is the viral RdRp; made in house; host or cells: insect cells infected with recombinant baculovirus
T2 sequence (P26663 2420-3010): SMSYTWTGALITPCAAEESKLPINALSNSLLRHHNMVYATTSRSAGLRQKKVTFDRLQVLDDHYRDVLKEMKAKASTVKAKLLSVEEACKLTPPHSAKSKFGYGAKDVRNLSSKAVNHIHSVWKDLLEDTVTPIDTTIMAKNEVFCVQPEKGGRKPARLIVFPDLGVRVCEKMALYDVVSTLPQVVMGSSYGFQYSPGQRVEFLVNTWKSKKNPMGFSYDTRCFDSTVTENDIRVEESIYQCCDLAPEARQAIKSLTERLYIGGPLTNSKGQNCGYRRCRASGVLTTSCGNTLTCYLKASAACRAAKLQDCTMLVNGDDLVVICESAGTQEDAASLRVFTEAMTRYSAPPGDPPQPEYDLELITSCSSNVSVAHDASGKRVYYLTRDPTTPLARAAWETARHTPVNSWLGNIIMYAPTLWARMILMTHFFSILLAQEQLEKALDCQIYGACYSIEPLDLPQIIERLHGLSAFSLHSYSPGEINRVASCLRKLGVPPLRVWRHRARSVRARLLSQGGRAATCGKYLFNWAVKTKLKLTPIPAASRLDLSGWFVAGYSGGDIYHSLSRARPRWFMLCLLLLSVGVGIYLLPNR
Description: In initial tests, the compounds were tested to see if they were effective as inhibitors of the RNA-dependent RNA polymerase (RdRp) of hepatitis C virus (HCV). The HCV NS5B protein is the viral RdRp; compounds capable of interfering with the activity of this enzyme are thus expected to block viral replication.
Test for Inhibition of Hepatatis C Virus RdRp
WO96/37619 describes the production of recombinant HCV RdRp from insect cells infected with recombinant baculovirus encoding the enzyme. […] The reference describes a polymerisation assay using poly (A) as a template and oligo (U) as a primer. Incorporation of tritiated UTP is quantified by measuring acid-insoluble radioactivity. The present inventors have employed this assay to screen the various compounds described above as inhibitors of HCV RdRp and other virally encoded polymerases.
Incorporation of radioactive UMP was measured as follows. The standard reaction (100 μl) was carried out in a buffer containing 20 mM tris/HCl pH 7.5, 5 mM MgCl2, 1 mM DTT, 50 mM NaCl, 1 mM EDTA, 2 OU Rnasin (Promega), 0.05% Triton X-100, 1 μCi[^3H] UTP (40 Ci/mmol,NEN), 10 μM UTP and 10 μg/ml poly (A). Oligo (U)12 (1 μg/ml, Genset) was added as a primer. The final NSSB enzyme concentration was 20 nM. After 1 hour incubation at 22° C. the reaction was stopped by adding 100 μl of 20% TCA and applying samples to DE81 filters. The filters were washed thoroughly with 5% TCA containing 1M Na2HPO4/NaH2PO4, pH 7.0, rinsed with water and then ethanol, air dried, and the filter-bound radioactivity was measured in the scintillation counter. By carrying out the reaction in the presence of various concentrations of each of the compounds set out above it was possible to determine IC50 values for each compound with the formula: % residual activity=100/(1+[I]/IC50)^s where [I] is the inhibitor concentration and “s” is the slope of the inhibition curve. Test for Inhibition of Hepatitis B Virus Polymerase

[3] = Tables IXa-IXc, unit inferred, read-out: HCV (IC50)

Compound	pIC50 [1]	IC50 [2] [µM]	pIC50 [2, 3]	pIC50 [2]
O=C(O)C(O)=CC(=O)c1ccccc1 [Example 1]	4.05	5.6	5.25	
O=C(O)C(O)=CC(=O)c1cccc(OCc2ccccc2)c1 [Example 4]	< 4.00	8	5.10	
O=C(O)C(O)=CC(=O)c1cccc(OCc2c(F)cccc2F)c1 [Example 7]	4.21	2.92	5.48	
O=C(O)C(O)=CC(=O)c1ccccc1OCc1ccccc1 [Example 8]	4.72	44	4.36	
C=CCOc1ccccc1C(=O)C=C(O)C(=O)O [Example 16]	< 4.00	4.3	5.37	
O=C(O)C(O)=CC(=O)c1cccc(OCCc2ccccc2)c1 [Example 18]	4.52	2.2	5.66	
Cc1cccc(C(=O)C=C(O)C(=O)O)c1 [Example 19]	4.11	11.9	4.92	
N#CCCCOc1ccccc1C(=O)C=C(O)C(=O)O [Example 20]	4.57	0.38	6.42	
Cc1ccc(OCCCC#N)c(C(=O)C=C(O)C(=O)O)c1 [Example 21]	< 4.30	0.955	6.00	
O=C(O)C(O)=CC(=O)c1cccc(O)c1 [Example 23]	4.23	0.94	6.00	
O=C(O)C(=O)Nc1cccc(C(=O)C=C(O)C(=O)O)c1 [Example 24]	4.15	19	4.72	
O=C(O)CCCOc1ccccc1C(=O)C=C(O)C(=O)O [Example 27]	< 4.30	2.84	5.52	
N#CCCCOc1ccc(Cl)cc1C(=O)C=C(O)C(=O)O [Example 36]	4.62	1.6	5.80	
O=C(O)C(O)=CC(=O)c1ccccc1Cc1ccc(F)cc1 [Example 40]	4.92	8.3	5.08	
N#CCCCOc1ccc(O)cc1C(=O)C=C(O)C(=O)O [Example 53]	4.43	0.115	6.94	
O=C(O)C(O)=CC(=O)c1cccc(NS(=O)(=O)c2cccc3ccccc23)c1 [Example 78]	4.46	0.67	6.17	
Cc1cc(C)c(C(=O)C=C(O)C(=O)O)s1 [Example 192]		8.2	5.09	
O=C(O)C(O)=CC(=O)c1ccc(Cl)s1 [Example 193]		12		
O=C(O)C(O)=CC(=O)c1sccc1Cl [Example 194]		16		
O=C(O)C(O)=CC(=O)c1ccc(N2CCCC2)s1 [Example 195]		11.1		
O=C(O)C(O)=CC(=O)c1cc(-c2cccnc2)cs1 [Example 197]		11		
O=C(O)C(O)=CC(=O)c1ccc(Br)s1 [Example 198]		7.9	5.10	
O=C(O)C(O)=CC(=O)c1sccc1Br [Example 199]		17		
O=C(O)C(O)=CC(=O)c1ccc(N2CCCCC2)s1 [Example 200]		8.2		

Compound	pIC50 [1]	IC50 [2] [µM]	pIC50 [2, 3]	pIC50 [2]
Cc1csc2sc(C(=O)C=C(O)C(=O)O)c(C)c12 [Example 201]		20		
C=CCN(CC=C)c1ccc(C(=O)C=C(O)C(=O)O)s1 [Example 203]		19.8		
O=C(O)C(O)=CC(=O)c1cc2c(s1)-c1ccccc1CC2 [Example 204]		11		
O=C(O)C(O)=CC(=O)c1sccc1Cc1cccc(F)c1 [Example 207]		9.9		
O=C(O)C(O)=CC(=O)c1sccc1Cc1ccc(F)cc1 [Example 208]		11.6		
O=C(O)C(O)=CC(=O)c1sccc1Sc1ccccc1 [Example 209]		12.6		
O=C(O)C(O)=CC(=O)c1ccc(Cc2cccc(Cl)c2)s1 [Example 211]		82		
O=C(O)C(O)=CC(=O)c1sccc1Cc1cccc(Cl)c1 [Example 212]		7.5		
O=C(O)C(O)=CC(=O)c1sccc1Sc1cccc(F)c1 [Example 213]		5.9		
O=C(O)C(O)=CC(=O)c1cc2c(s1)CCCC2c1ccccc1 (stereo not drawn) [Example 214]		17		
O=C(O)C(O)=CC(=O)c1ccc(N2CCc3ccccc3C2)s1 [Example 215]		15.3		
O=C(O)C(=O)CC(=O)c1ccco1 [Example 216]				4.30
Cc1ccc(C(=O)CC(=O)C(=O)O)o1 [Example 217]		58		
Cc1c[nH]c(C)c1C(=O)C=C(O)C(=O)O [Example 219]		23.7		
N#Cc1cccc(Cn2ccc(C(=O)C=C(O)C(=O)O)c2)c1 [Example 220]		4.6		
Cn1cc(C(=O)C=C(O)C(=O)O)cc1Cc1cccc(F)c1 [Example 221]		20.6		
O=C(O)C(O)=CC(=O)c1ccsc1 [Example 222]		4		
O=C(O)C(O)=CC(=O)c1cc(Cl)sc1Cl [Example 224]		50		
Cc1ccc(-c2sccc2C(=O)C=C(O)C(=O)O)cc1 [Example 226]		17		
O=C(O)C(O)=CC(=O)c1ccsc1Cc1cccs1 [Example 227]		15		
O=C(O)C(O)=CC(=O)c1ccsc1Cc1ccc(F)cc1 [Example 228]		17.8		
O=C(O)C(O)=CC(=O)c1ccsc1Cc1cccc(F)c1 [Example 229]		80		
O=C(O)C(O)=CC(=O)c1ccsc1Cc1ccccc1F [Example 230]		8.6		
O=C(O)C(O)=CC(=O)c1ccsc1Cc1ccc(Cl)cc1 [Example 231]		9.4		

Compound	pIC50 [1]	IC50 [2] [µM]	pIC50 [2, 3]	pIC50 [2]
O=C(O)C(O)=CC(=O)c1ccsc1Cc1cccc(Cl)c1 [Example 232]		11.8		
O=C(O)C(O)=CC(=O)c1ccsc1Cc1ccccc1Cl [Example 233]		9.2		
O=C(O)C(O)=CC(=O)c1ccsc1Sc1ccc(F)cc1 [Example 234]		14.5		
O=C(O)C(O)=CC(=O)c1ccsc1Sc1cccc(Cl)c1 [Example 235]		7.5		
O=C(O)C(O)=CC(=O)c1csc2ccccc12 [Example 236]		26		
Cc1cc(C(=O)C=C(O)C(=O)O)c(C)o1 [Example 237]		14		
CC1(C(=O)C=C(O)C(=O)O)CC1 [Example 239]		9.4		
CCC(C)C(=O)/C=C(\O)C(=O)O (stereo not drawn) [Example 240]		18		
CC(C)(C)C(=O)C=C(O)C(=O)O [Example 241]		37		
CC1=CCC(C(=O)C=C(O)C(=O)O)CC1 (stereo not drawn) [Example 242]		12.8		
O=C(O)C(O)=CC(=O)C(c1ccccc1)c1ccccc1 [Example 244]		77		
CCCCS(=O)(=O)N1CCCC(Cc2ccc(Cl)cc2)(C(=O)C=C(O)C(=O)O)C1 (stereo not drawn) [Example 245]		81.4		
O=C(O)C(O)=CC(=O)C1(c2ccccc2)CCN(S(=O)(=O)c2cccc(Cl)c2)CC1 [Example 246]		18		
O=C(O)/C(O)=C/C(=O)C1(Cc2ccc(Cl)cc2)CCCN(Cc2ccccc2)C1 (stereo not drawn) [Example 247]		45		
O=C(O)C(O)=CC(=O)C1(c2ccccc2)CCN(S(=O)(=O)c2cccc3cccnc23)CC1 [Example 248]		10		
O=C(O)C(O)=CC(=O)C1(c2ccccc2)CCN(C(=O)N(c2ccccc2)c2ccccc2)CC1 [Example 249]		60		
O=C(O)C(O)=CC(=O)C1(c2ccccc2)CCN(S(=O)(=O)c2ccc(Cl)c(Cl)c2)CC1 [Example 250]		17		
O=C(O)C(O)=CC(=O)C1(c2ccccc2)CCN(S(=O)(=O)c2cc(Cl)c(Cl)cc2Cl)CC1 [Example 251]		21		
O=C(O)/C(O)=C/C(=O)C1(Cc2ccc(Cl)cc2)CCCN(S(=O)(=O)c2ccc(Br)cc2)C1 (stereo not drawn) [Example 252]		61		
O=C(O)C(O)=CC(=O)C1=CCCCC1 [Example 254]		14		
CC1=C(C(=O)C=C(O)C(=O)O)CCC1 [Example 255]		16.7		
O=C(O)C(O)=CC(=O)C1CCCCC1 [Example 256]		25		
O=C(C=C(O)C(=O)O)CC1CCCCC1 [Example 257]		50		
